Publication PMC6271714, “Hypotensive Effects and Angiotensin-Converting Enzyme Inhibitory Peptides of Reishi (Ganoderma lingzhi) Auto-Digested Extract” (Molecules, 2014)
Where a SMILES comes first, the peptide text is derived from it.

Target: T1, Angiotensin-Converting Enzyme (ACE) (Homo sapiens, UniProt P12821)
T1 construct: purchased Dojindo Laboratories ACE Kit-WST A502
Test: ACE inhibition assay (Dojindo ACE Kit-WST A502)
Type: biochemical
Conditions: synthesized peptides, six concentrations 10 to 100 μg/mL; read-out: IC50 Values (μM), ACE inhibition capacity
Method: Dojindo ACE Kit-WST A502 was used for testing the ACE-inhibitory activity. Principles of the kit were described in details in a previous report. Testing procedures were run strictly according to the manufacturer’s instructions using a 96-well plate, and inhibition rate was calculated based on the comparison of optical absorbance of sample-treated wells (As), control wells (Ac) and blank wells (Ab) as in the equation below. Absorbance was measured at 450 nm using microplate reader-Biotek-ELX800 (BioTek, Winooski, VT, USA): Inhibition rate (%) = [(Ac − As)/(Ac − Ab)]×100 (1)
For the peptides, six different concentrations of each peptide, ranging from 10 to 100 μg/mL, were assayed, and dose-response curves were plotted for the calculation of the IC50 values. IPP has been proven to be an ACE inhibitor [34] and thus was used as positive control (at concentrations ranging from 0.15 to 5 μg/mL).

T1 sequence (P12821 30-1306, species assumed): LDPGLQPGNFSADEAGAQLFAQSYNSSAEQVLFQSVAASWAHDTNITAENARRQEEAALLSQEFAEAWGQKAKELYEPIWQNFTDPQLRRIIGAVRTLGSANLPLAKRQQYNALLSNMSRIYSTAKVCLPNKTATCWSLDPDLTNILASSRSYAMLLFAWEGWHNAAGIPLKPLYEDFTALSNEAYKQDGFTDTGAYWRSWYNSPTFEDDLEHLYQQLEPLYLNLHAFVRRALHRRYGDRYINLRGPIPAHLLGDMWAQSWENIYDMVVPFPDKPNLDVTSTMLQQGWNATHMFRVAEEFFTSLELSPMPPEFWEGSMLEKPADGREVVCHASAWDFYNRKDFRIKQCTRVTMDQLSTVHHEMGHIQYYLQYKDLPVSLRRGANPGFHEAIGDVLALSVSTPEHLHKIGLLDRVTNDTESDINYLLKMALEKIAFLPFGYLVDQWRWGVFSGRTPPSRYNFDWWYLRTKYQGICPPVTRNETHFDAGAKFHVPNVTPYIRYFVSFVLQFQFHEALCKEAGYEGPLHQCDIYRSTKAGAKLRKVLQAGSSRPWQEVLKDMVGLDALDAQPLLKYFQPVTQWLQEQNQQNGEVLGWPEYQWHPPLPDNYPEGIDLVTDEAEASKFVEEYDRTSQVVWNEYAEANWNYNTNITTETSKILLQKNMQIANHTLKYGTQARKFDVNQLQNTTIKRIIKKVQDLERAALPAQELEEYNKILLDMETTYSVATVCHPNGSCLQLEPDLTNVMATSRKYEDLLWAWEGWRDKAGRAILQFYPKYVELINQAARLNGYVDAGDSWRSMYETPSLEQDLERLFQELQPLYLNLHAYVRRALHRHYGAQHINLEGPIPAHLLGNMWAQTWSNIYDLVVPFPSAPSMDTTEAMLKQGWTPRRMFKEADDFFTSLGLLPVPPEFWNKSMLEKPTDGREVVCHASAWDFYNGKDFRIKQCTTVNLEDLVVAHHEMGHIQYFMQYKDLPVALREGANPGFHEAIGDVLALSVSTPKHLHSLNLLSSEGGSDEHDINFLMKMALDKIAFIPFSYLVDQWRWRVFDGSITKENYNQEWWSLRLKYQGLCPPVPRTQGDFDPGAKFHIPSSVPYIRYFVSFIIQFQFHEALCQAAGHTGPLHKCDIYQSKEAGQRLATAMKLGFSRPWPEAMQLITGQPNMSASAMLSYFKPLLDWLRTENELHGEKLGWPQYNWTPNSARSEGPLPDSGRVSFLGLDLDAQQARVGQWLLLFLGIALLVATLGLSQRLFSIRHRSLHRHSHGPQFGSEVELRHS

| IC50 | SMILES |
| --- | --- |
| > 200 µM | CC(C)C[C@H](NC(=O)[C@H](C)N)C(=O)O [Ala-Leu] (H-Ala-Leu-OH) |
| 163 µM | C[C@H](N)C(=O)N[C@@H](Cc1ccc(O)cc1)C(=O)O [Ala-Tyr] (H-Ala-Tyr-OH) |
| 73.1 µM | CC[C@H](C)[C@H](N)C(=O)N1CCC[C@H]1C(=O)N[C@H](C(=O)O)[C@@H](C)O [Ile-Pro-Thr] (H-Ile-Pro-Thr-OH) |
| > 200 µM | CC(C)C[C@H](NC(=O)[C@@H](N)CO)C(=O)O [Ser-Leu] (H-Ser-Leu-OH; N-terminus and C-terminus assumed) |
| 94.7 µM | N[C@@H](CO)C(=O)N[C@@H](Cc1ccc(O)cc1)C(=O)O [Ser-Tyr] (H-Ser-Tyr-OH) |
| > 200 µM | CC(C)C[C@H](NC(=O)[C@@H](N)[C@@H](C)O)C(=O)O [Thr-Leu] (H-Thr-Leu-OH) |

Further lines, the compound ahead of its results:

| SMILES | IC50 |
| --- | --- |
| CC[C@H](C)[C@H](NC(=O)[C@H](CO)NC(=O)[C@@H](N)CC(N)=O)C(=O)O [Asn-Ser-Ile] (H-Asn-Ser-Ile-OH) | 342 µM |
| CC(C)C[C@H](NC(=O)[C@@H]1CCCN1C(=O)CN)C(=O)O [Gly-Pro-Leu] (H-Gly-Pro-Leu-OH) | > 500 µM |
| CC[C@H](C)[C@H](N)C(=O)N[C@@H](CCCNC(=N)N)C(=O)O [Ile-Arg] | 73.7 µM |
| CC(C)[C@H](NC(=O)[C@@H](N)CCCCN)C(=O)N1CCC[C@H]1C(=O)O [Lys-Val-Pro] (H-Lys-Val-Pro-OH) | > 500 µM |
| CC[C@H](C)[C@H](NC(=O)[C@@H](N)CO)C(=O)O [Ser-Ile] (H-Ser-Ile-OH) | > 200 µM |
